In ChEMBL document CHEMBL1909046, “DrugMatrix in vitro pharmacology data”:
pIC50, pKi: −log10 of the molar value.

Tests used:
[1] = DRUGMATRIX: GABAA, Chloride Channel, TBOB radioligand binding (ligand: [3H] TBOB); type: cell membranes, Rattus norvegicus, Wistar, Cerebral cortex, Membrane; details: Not Active = under 50% inhibition at 10 µM
[2] = target: Histamine H2 receptor (Homo sapiens, UniProt P25021); type: cell membranes, CHO-K1, Membrane; details: cho-k1; note: in other assays of this panel Not Active means under 50% inhibition at 10 µM
[3] = target: Protein phosphatase 3 catalytic subunit alpha (Homo sapiens, UniProt Q08209); design: species or system Escherichia coli;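 note: inhibition of calcineurin (PP2B) enzyme activity, measured with DiFMUP as the substrate; in other assays of this panel Not Active means under 50% inhibition at 10 µM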
[4] = target: T1, Muscarinic acetylcholine receptor M2 (Homo sapiens, UniProt P08172); type: cell membranes, CHO-K1, Membrane; details: cho-k1; note: in other assays of this panel Not Active means under 50% inhibition at 10 µM
T1 sequence (P08172 whole entry): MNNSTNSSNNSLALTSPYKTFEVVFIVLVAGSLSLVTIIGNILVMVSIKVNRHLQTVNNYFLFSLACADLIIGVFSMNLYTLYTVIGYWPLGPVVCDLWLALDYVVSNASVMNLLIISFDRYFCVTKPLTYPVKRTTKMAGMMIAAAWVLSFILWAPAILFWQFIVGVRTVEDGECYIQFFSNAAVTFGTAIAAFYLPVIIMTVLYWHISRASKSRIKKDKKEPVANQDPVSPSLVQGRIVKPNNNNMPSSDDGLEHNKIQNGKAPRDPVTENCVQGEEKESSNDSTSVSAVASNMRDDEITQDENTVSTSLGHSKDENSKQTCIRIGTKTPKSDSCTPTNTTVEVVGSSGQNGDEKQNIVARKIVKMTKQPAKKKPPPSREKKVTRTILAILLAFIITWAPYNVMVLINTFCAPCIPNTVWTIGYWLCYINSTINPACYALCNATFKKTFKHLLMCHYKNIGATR

[5] = DRUGMATRIX: GABAA, Flunitrazepam, Central radioligand binding (ligand: [3H] Flunitrazepam); type: cell membranes, Rattus norvegicus, Wistar, Brain, Membrane; details: Not Active = under 50% inhibition at 10 µM; for pIC50: read-out: IC50; for pKi: read-out: Ki
[6] = target: T2, Alpha-2A adrenergic receptor (Homo sapiens, UniProt P08913); type: cell membranes, Sf9, Membrane; details: for IC50: sf9; for all read-outs here: in other assays of this panel Not Active means under 50% inhibition at 10 µM
T2 sequence (P08913 whole entry): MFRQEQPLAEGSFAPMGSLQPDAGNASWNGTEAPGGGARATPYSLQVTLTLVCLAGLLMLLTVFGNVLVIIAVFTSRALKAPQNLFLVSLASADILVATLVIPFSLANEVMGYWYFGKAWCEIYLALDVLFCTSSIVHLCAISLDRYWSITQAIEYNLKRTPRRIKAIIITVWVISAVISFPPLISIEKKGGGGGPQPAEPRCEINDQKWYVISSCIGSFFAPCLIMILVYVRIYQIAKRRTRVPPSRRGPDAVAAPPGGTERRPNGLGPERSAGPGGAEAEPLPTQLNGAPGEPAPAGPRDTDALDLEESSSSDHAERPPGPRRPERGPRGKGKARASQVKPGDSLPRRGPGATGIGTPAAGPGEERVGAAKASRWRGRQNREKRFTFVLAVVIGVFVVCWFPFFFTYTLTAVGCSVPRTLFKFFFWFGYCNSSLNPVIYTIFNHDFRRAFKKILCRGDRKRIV

[7] = DRUGMATRIX: Glutamate, NMDA, Phencyclidine radioligand binding (ligand: [3H] TCP); type: cell membranes, Rattus norvegicus, Wistar, Cerebral cortex, Membrane; details: Not Active = under 50% inhibition at 10 µM

Sequence of Histamine H2 receptor (P25021 whole entry): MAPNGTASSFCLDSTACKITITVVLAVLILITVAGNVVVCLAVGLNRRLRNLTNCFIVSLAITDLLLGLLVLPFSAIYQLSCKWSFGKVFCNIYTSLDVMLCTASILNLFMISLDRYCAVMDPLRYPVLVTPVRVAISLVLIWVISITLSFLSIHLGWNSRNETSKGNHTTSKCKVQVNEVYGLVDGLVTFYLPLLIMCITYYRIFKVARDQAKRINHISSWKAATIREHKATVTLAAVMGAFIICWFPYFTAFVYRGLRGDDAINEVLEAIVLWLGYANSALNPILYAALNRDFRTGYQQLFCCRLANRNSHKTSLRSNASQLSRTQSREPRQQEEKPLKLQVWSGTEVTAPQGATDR

For `CC(=O)O[C@]1(C(C)=O)CC[C@H]2[C@@H]3C=C(Cl)C4=CC(=O)[C@@H]5C[C@@H]5[C@]4(C)[C@H]3CC[C@@]21C` [CYPROTERONE ACETATE], the IC50 [1] was “Not Active”, the Ki [1] was “Not Active” and the IC50 [2] was “Not Active”. The IC50 [3] was “Not Active”, the IC50 [4] was “Not Active” and the IC50 [5] was “Not Active”. For the same molecule, the Ki [5] was “Not Active”, the IC50 [6] was “Not Active” and the IC50 [7] was “Not Active”. For the same molecule, the Ki [7] was “Not Active”.

For `Nc1nc(N)nc(NC2CC2)n1` [CYROMAZINE], the IC50 [1] was “Not Active”, the Ki [1] was “Not Active” and the IC50 [2] was “Not Active”. For the same molecule, the IC50 [3] was “Not Active”, the IC50 [4] was “Not Active” and the IC50 [5] was “Not Active”. The Ki [5] was “Not Active”, the IC50 [6] was “Not Active” and the IC50 [7] was “Not Active”. The Ki [7] was “Not Active”.

In the case of `C#C[C@]1(O)CC[C@H]2[C@@H]3CCC4=Cc5oncc5C[C@]4(C)[C@H]3CC[C@@]21C` [DANAZOL], the IC50 [1] was “Not Active”, the Ki [1] was “Not Active” and the IC50 [2] was “Not Active”. The IC50 [3] was “Not Active”, the IC50 [4] was “Not Active” and the pIC50 [5] was 4.26. It also gave a pKi [5] of 4.35, a pIC50 ([6]; read-out: IC50) of 4.74 and a pKi ([6]; read-out: Ki) of 5.16. For the same molecule, the IC50 [7] was “Not Active” and the Ki [7] was “Not Active”.

For `CCN[C@@H](C)Cc1cccc(C(F)(F)F)c1` [DEXFENFLURAMINE], the IC50 [1] was “Not Active”, the Ki [1] was “Not Active” and the IC50 [2] was “Not Active”. The IC50 [3] was “Not Active”, the IC50 [4] was “Not Active” and the IC50 [5] was “Not Active”. The Ki [5] was “Not Active”, the IC50 [6] was “Not Active” and the IC50 [7] was “Not Active”. For the same molecule, the Ki [7] was “Not Active”.

With `C[C@H](C(=O)O)c1cccc(C(=O)c2ccccc2)c1` [DEXKETOPROFEN] the IC50 [1] was “Not Active”, the Ki [1] was “Not Active” and the IC50 [2] was “Not Active”. The IC50 [3] was “Not Active”, the IC50 [4] was “Not Active” and the IC50 [5] was “Not Active”. For the same molecule, the Ki [5] was “Not Active”, the IC50 [6] was “Not Active” and the IC50 [7] was “Not Active”. The Ki [7] was “Not Active”.

With `CN1C(=O)CN=C(c2ccccc2)c2cc(Cl)ccc21` [DIAZEPAM] the IC50 [1] was “Not Active”, the Ki [1] was “Not Active” and the IC50 [2] was “Not Active”. For the same molecule, the IC50 [3] was “Not Active”, the IC50 [4] was “Not Active” and the pIC50 [5] was 7.54. The pKi [5] was 7.63, the IC50 [6] was “Not Active” and the IC50 [7] was “Not Active”. For the same molecule, the Ki [7] was “Not Active”.

In the case of `Cc1c(N(C)CS(=O)(=O)[O-])c(=O)n(-c2ccccc2)n1C.[Na+]` [DIPYRONE SODIUM], the IC50 [1] was “Not Active”, the Ki [1] was “Not Active” and the IC50 [2] was “Not Active”. For the same molecule, the IC50 [3] was “Not Active”, the IC50 [4] was “Not Active” and the IC50 [5] was “Not Active”. The Ki [5] was “Not Active”, the IC50 [6] was “Not Active” and the IC50 [7] was “Not Active”. For the same molecule, the Ki [7] was “Not Active”.

With `CC(CCc1ccc(O)cc1)NCCc1ccc(O)c(O)c1` (stereo unspecified) [DOBUTAMINE] the IC50 [1] was “Not Active”, the Ki [1] was “Not Active” and the IC50 [2] was “Not Active”. The IC50 [3] was “Not Active”, the IC50 [4] was “Not Active” and the IC50 [5] was “Not Active”. For the same molecule, the Ki [5] was “Not Active”, the IC50 [6] was “Not Active” and the IC50 [7] was “Not Active”. For the same molecule, the Ki [7] was “Not Active”.

For `CCn1cc(C(=O)O)c(=O)c2cc(F)c(N3CCNCC3)nc21` [ENOXACIN], the IC50 [1] was “Not Active”, the Ki [1] was “Not Active” and the IC50 [2] was “Not Active”. The IC50 [3] was “Not Active”, the IC50 [4] was “Not Active” and the IC50 [5] was “Not Active”. For the same molecule, the Ki [5] was “Not Active”, the IC50 [6] was “Not Active” and the IC50 [7] was “Not Active”. The Ki [7] was “Not Active”.

With `CCC(=O)O[C@H]1[C@H](O[C@@H]2[C@@H](C)[C@H](O[C@H]3C[C@@](C)(OC)[C@@H](O)[C@H](C)O3)[C@@H](C)C(=O)O[C@H](CC)[C@@](C)(O)[C@H](O)[C@@H](C)C(=O)[C@H](C)C[C@@]2(C)O)O[C@H](C)C[C@@H]1N(C)C` [ERYTHROMYCIN PROPIONATE] the IC50 [1] was “Not Active”, the Ki [1] was “Not Active” and the IC50 [2] was “Not Active”. For the same molecule, the IC50 [3] was “Not Active”, the IC50 [4] was “Not Active” and the IC50 [5] was “Not Active”. For the same molecule, the Ki [5] was “Not Active”, the IC50 [6] was “Not Active” and the IC50 [7] was “Not Active”. For the same molecule, the Ki [7] was “Not Active”.

For `C=C(CC)C(=O)c1ccc(OCC(=O)O)c(Cl)c1Cl` [ETHACRYNIC ACID], the IC50 [1] was “Not Active”, the Ki [1] was “Not Active” and the IC50 [2] was “Not Active”. The IC50 [3] was “Not Active”, the IC50 [4] was “Not Active” and the IC50 [5] was “Not Active”. For the same molecule, the Ki [5] was “Not Active”, the IC50 [6] was “Not Active” and the IC50 [7] was “Not Active”. For the same molecule, the Ki [7] was “Not Active”.

For `C#C[C@]1(O)CC[C@H]2[C@@H]3CCc4cc(O)ccc4[C@H]3CC[C@@]21C` [ETHINYL ESTRADIOL], the IC50 [1] was “Not Active”, the Ki [1] was “Not Active” and the IC50 [2] was “Not Active”. The IC50 [3] was “Not Active”, the IC50 [4] was “Not Active” and the IC50 [5] was “Not Active”. For the same molecule, the Ki [5] was “Not Active”, the IC50 [6] was “Not Active” and the IC50 [7] was “Not Active”. For the same molecule, the Ki [7] was “Not Active”.
